Test results from patent US20240093034A1, “FLUORESCENT DYES” (EXOPHARM LIMITED, priority 2020, published 2024).

System: CD4+ T cells
Test: Multi-donor mixed lymphocyte reaction (mdMLR) assay
Assay type: cell-based, human
Text: The immunomodulatory potential of dye 2-labelled and non-labelled MSC-EV preparations were compared in a multi-donor mixed lymphocyte reaction assay (MLR) as described previously (Madel et al., 2020, Independent human mesenchymal stromal cell-derived extracellular vesicle preparations differentially affect symptoms in an advanced murine Graft-versus-Host-Disease model. bioRxiv, 2020.2012.2021.423658). Briefly, Ficoll prepared peripheral blood mononuclear cells (PBMC) of 12 healthy donors were mixed in equal proportions, aliquoted and stored in the vapour phase of liquid nitrogen until usage. After thawing 600,000 cells were seeded per well of a 96-well U-bottom shape plates (Corning, Kaiserslautern, Germany) and cultured in 10% human AB serum (produced in house) and 100 U/mL penicillin and 100 µg/mL streptomycin (Thermo Fisher Scientific) supplemented RPMI 1640 medium (Thermo Fisher Scientific) in a final volume of 200 μL per well, either in the presence or absence of MSC-EV preparations to be tested. After 5 days, cells were harvested, stained with a collection of different fluorescent labelled antibodies (CD4-BV785; BioLegend, San Diego, CA, USA; CD25-PE-Cy5.5; BD Bioscience; and CD54-AF700; EXBIO) and analysed on a Cytoflex flow cytometer (Software CytExpert 2.3, Beckman-Coulter). […]

- influence on activation status of CD4+ T cells (buffer solved dye alone): did not influence the activation status
Compound: CCCCCCCCCCCCCCCCCCN(C)C(=O)c1ccccc1-c1c2ccc(=[N+](CC)CC)cc-2oc2cc(N(CC)CC)ccc12.[Cl-] [Dye 2, Rhodamine B N-methyloctadecylamide]
- reduction in CD4+ T cell activation (dye 2-labelled MSC-EV preparations (n=3), versus non-labelled): comparable reduction
